{"source": "patent US10335455B2", "about": "“Method for prevention or treatment of intractable inflammatory bowel disease” (University of Miyazaki, priority 2011, dated 2019)", "key": {"[1]": {"test_system": "patients with steroid-resistant or steroid-dependent ulcerative colitis", "test": "Continuous intravenous administration of adrenomedullin to patients with intractable ulcerative colitis", "assay_type": "in vivo, human", "conditions": "for DAI (Average): 6 cases, immediately before administration 9.0 ± 1.4; for Endoscopic findings in the large bowel: maintenance of remission: continuation treatment azathioprine 50 mg/day"}, "[2]": {"test_system": "subjects including normal individuals", "test": "Safety tests of continuous intravenous injection of adrenomedullin in subjects including normal individuals", "assay_type": "in vivo, human", "experimental": "(§1) The safety of continuous intravenous injection of adrenomedullin for 90 minutes was confirmed in 28 subjects including normal individuals. […] In the present Examples, 2 weeks of the animal test period was set to the continuous administration period."}, "[3]": {"test_system": "various disease model animals", "test": "Continuous intravenous injection of adrenomedullin for 1 month in disease model animals", "assay_type": "in vivo", "conditions": "continuous intravenous injection for 1 month", "experimental": "as §1"}, "[4]": {"test_system": "large bowel artificial ulcer model", "test": "Enema administration to a large bowel artificial ulcer model", "assay_type": "in vivo", "conditions": "5.0 μg/kg body weight"}, "[5]": {"test_system": "DSS enteritis (diffuse colitis)", "test": "Administration in DSS enteritis (diffuse colitis) model", "assay_type": "in vivo", "conditions": "2.5 μg/kg body weight"}, "colitis model": {"test_system": "colitis model", "conditions": "Gonzalez et al.; intraperitoneal administration of 12 μg/kg body weight; cited from earlier work"}, "[6]": {"test_system": "inflammatory bowel disease model", "assay_type": "in vivo", "from_the_text": "Thus, in the adrenomedullin administration, a low dose to an extent not greatly affecting circulatory dynamics is preferably used; a high dose rather makes it worse."}}, "note": "Entries after “also recorded” stand apart in the source; their conditions may differ.", "data": [{"compound": "CC[C@H](C)[C@H](NC(=O)[C@H](CCC(N)=O)NC(=O)[C@H](Cc1c[nH]cn1)NC(=O)[C@H](C)NC(=O)[C@H](CC(C)C)NC(=O)[C@H](CCCCN)NC(=O)[C@H](CCC(N)=O)NC(=O)[C@@H](NC(=O)[C@@H](NC(=O)[C@@H]1CSSC[C@H](NC(=O)CNC(=O)[C@H](Cc2ccccc2)NC(=O)[C@H](CO)NC(=O)[C@H](CCCNC(=N)N)NC(=O)[C@H](CC(C)C)NC(=O)CNC(=O)[C@H](CCC(N)=O)NC(=O)[C@H](Cc2ccccc2)NC(=O)[C@H](CC(N)=O)NC(=O)[C@H](CC(N)=O)NC(=O)[C@H](CCSC)NC(=O)[C@H](CO)NC(=O)[C@H](CCC(N)=O)NC(=O)[C@H](CCCNC(=N)N)NC(=O)[C@@H](N)Cc2ccc(O)cc2)C(=O)N[C@@H](CCCNC(=N)N)C(=O)N[C@@H](Cc2ccccc2)C(=O)NCC(=O)N[C@@H]([C@@H](C)O)C(=O)N1)[C@@H](C)O)C(C)C)C(=O)N[C@@H](Cc1ccc(O)cc1)C(=O)N[C@@H](CCC(N)=O)C(=O)N[C@@H](Cc1ccccc1)C(=O)N[C@H](C(=O)N[C@@H](CC(=O)O)C(=O)N[C@@H](CCCCN)C(=O)N[C@@H](CC(=O)O)C(=O)N[C@@H](CCCCN)C(=O)N[C@@H](CC(=O)O)C(=O)N[C@@H](CC(N)=O)C(=O)N[C@H](C(=O)N[C@@H](C)C(=O)N1CCC[C@H]1C(=O)N[C@@H](CCCNC(=N)N)C(=O)N[C@@H](CO)C(=O)N[C@@H](CCCCN)C(=O)N[C@H](C(=O)N[C@@H](CO)C(=O)N1CCC[C@H]1C(=O)N[C@@H](CCC(N)=O)C(=O)NCC(=O)N[C@@H](Cc1ccc(O)cc1)C(N)=O)[C@@H](C)CC)C(C)C)[C@@H](C)O", "note": "[adrenomedullin, synthetic human adrenomedullin]", "values": [{"measurement": "DAI (Average)", "setting": "[1]; 12 weeks after start of administration, p 0.0001", "value": "1.0 ± 1.15"}, {"measurement": "DAI (Average)", "setting": "[1]; 14 days after start of administration, 1.5 pmol/kg body weight/min i.v., 8 hours/day, p 0.0028", "value": "5.0 ± 2.4"}, {"measurement": "Mucosal regeneration in the affected areas", "setting": "[1]; all 6 cases", "value": "prominent mucosal regeneration was also confirmed"}, {"measurement": "Remission maintenance", "setting": "[1]; all 6 cases", "value": "remission was maintained"}, {"measurement": "Treatment effects", "setting": "[1]; all 6 cases of adrenomedullin administration", "value": "treatment effects were confirmed in all cases"}, {"measurement": "DAI improvement at 14 days after adrenomedullin administration", "setting": "[1]; in 4 cases of 6", "value": "≥ 4", "unit": "points"}, {"measurement": "Blood pressure reduction", "setting": "[1]; one patient, 1.5 pmol/kg body weight/min during 14 days of administration", "value": "≤ 10", "unit": "mmHg"}, {"measurement": "Variation in the blood concentration of adrenomedullin immediately after administration", "setting": "[1]; one patient, 1.5 pmol/kg body weight/min i.v.", "value": "smaller than variation due to inflammation"}, {"measurement": "Endoscopic findings in the large bowel: maintenance of remission", "setting": "[1]; one patient, 3 months after adrenomedullin administration", "value": "confirmed the maintenance of the remission; also recorded: Remission maintenance was confirmed"}, {"measurement": "Endoscopic findings in the large bowel: maintenance of remission", "setting": "[1]; one patient, 12 months after adrenomedullin administration", "value": "also confirmed the maintenance of the remission"}, {"measurement": "Endoscopic findings in the large bowel", "setting": "[1]; one patient, after 14 days of continuous administration, 1.5 pmol/kg body weight/min, 8 hours/day", "value": "remission due to adrenomedullin was confirmed; also recorded: marked proliferation of regenerated epithelium (left) and scarring of shallow wide ulcer (right)"}, {"measurement": "Symptoms considered to be side effects", "setting": "[1]; one patient, during 14 days of administration", "value": "not observed"}, {"measurement": "Blood pressure reduction", "setting": "[2]; 2.5 pmol/kg body weight/min, continuous administration for 27 hours", "value": "more than 20 mmHg"}, {"measurement": "Safety of continuous intravenous injection", "setting": "[2]; 90 minutes, 28 subjects including normal individuals", "value": "confirmed"}, {"measurement": "Adverse events", "setting": "[2]; continuous intravenous injection for 27 hours, 12 subjects", "value": "no adverse event was observed"}, {"measurement": "Safety and efficacy", "setting": "[3]", "value": "confirming the safety and efficacy thereof"}, {"measurement": "Effect in large bowel artificial ulcer model", "setting": "[4]", "value": "highest"}, {"measurement": "Effect in DSS enteritis (diffuse colitis)", "setting": "[5]", "value": "a high effect has also been observed"}, {"measurement": "Efficacy in colitis model", "setting": "colitis model", "value": "has shown the efficacy"}, {"measurement": "Curve of adrenomedullin dose versus anti-inflammatory/mucosa-repairing effect", "setting": "[6]; animal experiments", "value": "anti-bell shape"}, {"measurement": "Blood pressure reduction at the optimal (low) dose", "setting": "[6]; in vivo", "value": "proved not to cause blood pressure reduction"}]}]}
